Like-named read-outs stand apart in the source and are kept apart here.

Data set [1] can be described thus: logP by HPLC on reversed-phase column (C18), EEC Directive 79/831 Annex V.A8. The data set is classed as physicochemical. As to conditions: for logP: HPLC, C18, acetonitrile (0.1% formic acid)/water (0.09% formic acid) gradient.
The next data set concerns Lucilia cuprina. Nature of the data set: Lucilia cuprina test. The class given is in vivo. As to conditions: application rate 100 ppm, L1 larvae, after 2 days. The protocol: (§1) • Solvent: dimethyl sulphoxide
(§2) To produce a suitable preparation of active compound, 10 mg of active compound are mixed with 0.5 ml of dimethyl sulphoxide, and the concentrate is diluted with water to the desired concentration.
About 20 L1 larvae of the Australian sheep blowfly (Lucilia cuprina) are transferred into a test vessel containing minced horsemeat and the active compound preparation of the desired concentration.
After 2 days, the kill in % is determined. 100% means that all the larvae have been killed; 0% means that no larvae have been killed.

In the next data set the test system is Ctenocephalides felis. Nature of the data set: Ctenocephalides felis oral test. As to conditions: application rate 100 ppm in citrated cattle blood, after 2 days. The data set is classed as in vivo. From the text: Ctenocephalides felis—Oral Test • Solvent: dimethyl sulphoxide […] Dilution with citrated cattle blood gives the desired concentration. About 20 unfed adult cat fleas (Ctenocephalides felis) are placed into a chamber which is closed at the top and bottom with gauze. A metal cylinder whose bottom end is closed with parafilm is placed onto the chamber. The cylinder contains the blood/active compound preparation, which can be imbibed by the fleas through the parafilm membrane.

A further data set concerns Boophilus microplus. Nature of the data set: Boophilus microplus injection test. The class given is in vivo. As to conditions: application rate 20 μg/animal, assessed after 7 days. The method, then: Boophilus microplus—Injection Test • Solvent: dimethyl sulphoxide […] The animals are transferred into dishes and kept in a climate-controlled room. Efficacy is assessed after 7 days by laying of fertile eggs. Eggs which are not visibly fertile are stored in a climate-controlled cabinet until the larvae hatch after about 42 days.

The subject of the next data set is Musca domestica. Nature of the data set: Musca domestica test. The class given is in vivo. As to conditions: application rate 100 ppm, adult houseflies, after 2 days. The protocol:
as §1, §2
Vessels containing a sponge treated with sugar solution and the active compound preparation of the desired concentration are populated with 10 adult houseflies (Musca domestica).
After 2 days, the kill in % is determined. 100% means that all of the flies have been killed; 0% means that none of the flies have been killed.

Data set [2] has as its system Boophilus microplus Parkhurst strain, SP-resistant. Nature of the data set: Boophilus microplus dip test. The class given is in vivo. As to conditions: application rate 100 ppm, assessed after 7 days. The protocol: Boophilus microplus—Dip Test
• Test animals: cattle ticks (Boophilus microplus) Parkhurst strain, SP-resistant • Solvent: dimethyl sulphoxide
10 mg of active compound are dissolved in 0.5 ml of dimethyl sulphoxide. To produce a suitable formulation, the active compound solution is diluted with water to the concentration desired in each case.
This active compound preparation is pipetted into tubes. 8-10 engorged adult female cattle ticks (Boophilus microplus) are transferred into a further tube with holes. The tube is immersed into the active compound preparation, and all the ticks are completely wetted. After the liquid has run out, the ticks are transferred on filter discs into plastic dishes and stored in a climate-controlled room.
Efficacy is assessed after 7 days by laying of fertile eggs. Eggs which are not visibly fertile are stored in a climate-controlled cabinet until the larvae hatch after about 42 days. An efficacy of 100% means that none of the ticks has laid any fertile eggs; 0% means that all the eggs are fertile.

A further data set relates to Phaedon cochleariae. The data set is described as follows: Phaedon cochleariae spray test. The class given is in vivo. As to conditions: application rate 100 g/ha, after 7 days. The method, then: Phaedon Cochleariae—Spray Test
(§3) • Solvent: 78.0 parts by weight of acetone • 1.5 parts by weight of dimethylformamide • Emulsifier: alkylaryl polyglycol ether
To produce a suitable preparation of active compound, 1 part by weight of active compound is dissolved using the stated parts by weight of solvent and made up with water containing an emulsifier concentration of 1000 ppm until the desired concentration is attained. To produce further test concentrations, the preparation is diluted with emulsifier-containing water.
After 7 days, the efficacy in % is determined. 100% means that all the beetle larvae have been killed; 0% means that no beetle larvae have been killed.

For another data set, the system named is Tetranychus urticae. The data set is described as follows: Tetranychus urticae spray test, OP-resistant. The data set is classed as in vivo. As to conditions: application rate 100 g/ha, after 6 days. The method, then:
Tetranychus Urticae—Spray Test, OP-Resistant
as §3
To produce further test concentrations, the preparation is diluted with emulsifier-containing water.
After 6 days, the efficacy in % is determined. 100% means that all the spider mites have been killed; 0% means that none of the spider mites have been killed.

As to `CCc1cc(C(F)(C(F)(F)F)C(F)(F)F)cc(Br)c1N` [2-bromo-6-ethyl-4-heptafluoroisopropylaniline], the “log P (HPLC-MS)” value in data set [1] is on record as 4.38.

As for `CCc1cc(C(F)(C(F)(F)F)C(F)(F)F)cc(Cl)c1N` [2-chloro-6-ethyl-4-heptafluoroisopropylaniline], the “log P (HPLC-MS)” value in data set [1] (HPLC-MS method a)) is 4.67.

On to `Cc1cc(C(F)(C(F)(F)F)C(F)(F)F)cc(C(F)(F)F)c1N` [4-heptafluoroisopropyl-2-methyl-6-trifluoromethylaniline], for which the “log P (HPLC-MS)” value in data set [1] (HPLC-MS method a)) was 4.67.

One may read the logP as the decadic logarithm of the partition coefficient of the neutral form, usually between octanol and water. Read a low logP as lower lipophilicity. Take `COc1ncc(-c2cn(-c3c(Cl)cc(C(F)(C(F)(F)F)C(F)(F)F)cc3Cl)nn2)cc1C(=O)NC1CC1` [Example 10]: the “efficacy (kill in %)” value with Lucilia cuprina stood at 95%; in the data set with Ctenocephalides felis, 100%. This molecule also gave a logP in data set [1] of 4.4. Also, in the data set on Boophilus microplus, the “efficacy (laying of fertile eggs)” value is given as 100%.

Consider `CCc1cc(C(F)(C(F)(F)F)C(F)(F)F)cc(C)c1-n1cc(-c2cnc(Cl)c(C(=O)N(C)C3CC3)c2)nn1` [Example 19], for which the entries for the “efficacy (kill in %)” value with Lucilia cuprina, with Musca domestica and with Ctenocephalides felis were 100%, 80% and 100%, respectively. This molecule returned a logP in data set [1] of 4.6. Moreover, the “efficacy (laying of fertile eggs)” value (in the data set on Boophilus microplus; in data set [2]) was 100% each time.

Take `CCc1cc(C(F)(C(F)(F)F)C(F)(F)F)cc(C)c1-n1cc(-c2cnc(Cl)c(C(=O)NC3CC3)c2)nn1` [Example 20]: the “efficacy (kill in %)” value in the data set with Lucilia cuprina and with Ctenocephalides felis was 100% each time. Also, in data set [1], the logP stood at 4.1. For the same molecule, the “efficacy (laying of fertile eggs)” value (with Boophilus microplus; in data set [2]) was 100% throughout.

As to `Cc1cc(C(F)(C(F)(F)F)C(F)(F)F)cc(Br)c1-n1cc(-c2cnc(Cl)c(C(=O)N(C)C3CC3)c2)nn1` [Example 21], the “efficacy (kill in %)” value in the data set with Lucilia cuprina, in the data set on Musca domestica and with Ctenocephalides felis was 100% in each case. The logP in data set [1] is recorded as 4.4. The “efficacy (laying of fertile eggs)” value (in the data set on Boophilus microplus; in data set [2]) was 100% in each case.

Turning to `Cc1cc(C(F)(C(F)(F)F)C(F)(F)F)cc(Br)c1-n1cc(-c2cnc(Cl)c(C(=O)NC3CC3)c2)nn1` [Example 22], the “efficacy (kill in %)” value in the data set on Lucilia cuprina, in the data set with Musca domestica and with Ctenocephalides felis was 100% in each case. In data set [1], this molecule displayed a lipophilicity (logP) of 3.9. Besides, the “efficacy (laying of fertile eggs)” value (in the data set with Boophilus microplus; in data set [2]) was 100% throughout.

Regarding `CCc1cc(C(F)(C(F)(F)F)C(F)(F)F)cc(C)c1-n1cc(-c2cnc(Cl)c(C(=O)NCC(F)(F)F)c2)nn1` [Example 23], the “efficacy (kill in %)” value in the data set with Lucilia cuprina and in the data set on Ctenocephalides felis was 100% in each case. The logP in data set [1] was determined as 4.5. Further, the “efficacy (laying of fertile eggs)” value in the data set with Boophilus microplus turned out to be 100%.

`CCc1cc(C(F)(C(F)(F)F)C(F)(F)F)cc(C)c1-n1cc(-c2cnc(Cl)c(C(=O)NC(C)C)c2)nn1` [Example 24] yielded a logP in data set [1] of 4.4. Besides, the “efficacy (kill in %)” value in the data set with Ctenocephalides felis was found to be 100%. Further, in the data set on Boophilus microplus, the “efficacy (laying of fertile eggs)” value was 100%.

Consider `CCNC(=O)c1cc(-c2cn(-c3c(C)cc(C(F)(C(F)(F)F)C(F)(F)F)cc3CC)nn2)cnc1Cl` [Example 25], for which the “efficacy (kill in %)” value in the data set on Lucilia cuprina is given as 100%; in the data set with Musca domestica, 80%; with Ctenocephalides felis, 100%. The molecule further yielded a logP in data set [1] of 4.1. Further, the “efficacy (laying of fertile eggs)” value (in the data set on Boophilus microplus; in data set [2]) was 100% each time.

With `Cc1cc(C(F)(C(F)(F)F)C(F)(F)F)cc(Br)c1-n1cc(-c2cnc(Cl)c(C(=O)NCC(F)(F)F)c2)nn1` [Example 26], the “efficacy (kill in %)” value with Lucilia cuprina, in the data set on Musca domestica and in the data set on Ctenocephalides felis was 100% throughout. Besides, the lipophilicity (logP) in data set [1] came to 4.3. Further, the “efficacy (laying of fertile eggs)” value with Boophilus microplus amounted to 100%.

`CCNC(=O)c1cc(-c2cn(-c3c(C)cc(C(F)(C(F)(F)F)C(F)(F)F)cc3Br)nn2)cnc1Cl` [Example 27]: the “efficacy (kill in %)” value in the data set with Lucilia cuprina, in the data set with Musca domestica and in the data set with Ctenocephalides felis was 100% in each case. The molecule further yielded a lipophilicity (logP) in data set [1] of 3.9. Besides, the “efficacy (laying of fertile eggs)” value (in the data set on Boophilus microplus; in data set [2]) was 100% each time.

Molecule `O=C(NCC(F)(F)F)c1cc(-c2cn(-c3c(Cl)cc(-c4ccccc4)cc3Cl)nn2)cnc1Cl` [Example 28] displayed a logP in data set [1] of 3.9. For the same molecule, in the data set with Ctenocephalides felis, the “efficacy (kill in %)” value is reported as 100%. In the data set with Boophilus microplus, the “efficacy (laying of fertile eggs)” value came to 100%.

Consider `CC(C)NC(=O)c1cc(-c2cn(-c3c(Cl)cc(-c4ccccc4)cc3Cl)nn2)cnc1Cl` [Example 29], for which the logP in data set [1] is 3.8. In the data set on Boophilus microplus, the “efficacy (laying of fertile eggs)” value was 100%.

As to `CCNC(=O)c1cc(-c2cn(-c3c(Cl)cc(-c4ccccc4)cc3Cl)nn2)cnc1Cl` [Example 30], the “efficacy (kill in %)” value in the data set with Lucilia cuprina and with Ctenocephalides felis was 100% throughout. For the same molecule, in data set [1], the lipophilicity (logP) is reported as 3.5. The “efficacy (laying of fertile eggs)” value in the data set on Boophilus microplus came to 100%.

On to `CN(C(=O)c1cc(-c2cn(-c3c(Cl)cc(-c4ccccc4)cc3Cl)nn2)cnc1Cl)C1CC1` [Example 31], for which the “efficacy (kill in %)” value in the data set on Lucilia cuprina and in the data set with Ctenocephalides felis was 100% each time. The logP in data set [1] came out at 4.0. Besides, in the data set with Boophilus microplus, the “efficacy (laying of fertile eggs)” value worked out at 100%.

On to `O=C(NC1CC1)c1cc(-c2cn(-c3c(Cl)cc(-c4ccccc4)cc3Cl)nn2)cnc1Cl` [Example 32], for which the “efficacy (kill in %)” value in the data set on Lucilia cuprina and in the data set with Ctenocephalides felis was 100% each time. Moreover, in data set [1], the logP turned out to be 3.5. For the same molecule, in the data set with Boophilus microplus, the “efficacy (laying of fertile eggs)” value was determined as 100%.

For the molecule `O=C(NC1CC1)c1cc(-c2cn(-c3c(Cl)cc(C(F)(C(F)(F)F)C(F)(F)F)cc3OC(F)(F)F)nn2)cnc1Cl` [Example 33], the “efficacy (kill in %)” value in the data set on Lucilia cuprina, with Musca domestica and in the data set on Ctenocephalides felis was 100% throughout. In data set [1], this molecule returned a logP of 4.1. The “efficacy (laying of fertile eggs)” value (with Boophilus microplus; in data set [2]) was 100% each time.

Regarding `N#CC1(NC(=O)c2cc(-c3cn(-c4c(Cl)cc(C(F)(C(F)(F)F)C(F)(F)F)cc4OC(F)(F)F)nn3)cnc2Cl)CC1` [Example 34], the “efficacy (kill in %)” value with Lucilia cuprina, in the data set with Musca domestica and with Ctenocephalides felis was 100% throughout. Also, in data set [1], the logP is 4.0. Further, the efficacy in % in the data set with Phaedon cochleariae and in the data set on Tetranychus urticae was 100% each time. Further, the “efficacy (laying of fertile eggs)” value with Boophilus microplus is reported as 100%.

In data set [1], `O=C(NC1CC1)c1cc(-c2cn(-c3c(Cl)cc(C(F)(C(F)(F)F)C(F)(F)F)cc3OC(F)F)nn2)cnc1Cl` [Example 36] showed a logP of 3.7.

With `CN(C(=O)c1cc(-c2cn(-c3c(Cl)cc(C(F)(C(F)(F)F)C(F)(F)F)cc3OC(F)F)nn2)cnc1Cl)C1CC1` [Example 37], the logP in data set [1] amounted to 4.2.

For the molecule `N#CC1(NC(=O)c2cc(-c3cn(-c4c(Cl)cc(C(F)(C(F)(F)F)C(F)(F)F)cc4OC(F)F)nn3)cnc2Cl)CC1` [Example 38], in data set [1], the logP was determined as 3.7.

The values are drawn from patent US10208015B2, “Aryl-triazolyl pyridines as pest control agents” (BAYER ANIMAL HEALTH GMBH, priority 2014, dated 2019).
